Test results from patent US20230085307A1, “PYRIDAZINONE COMPOUND AND HERBICIDE” (NISSAN CHEMICAL CORPORATION, priority 2019, published 2023).

Key:
barnyard grass [1] = experiment: Test Example 4: herbicidal effect by soil treatment (Table 19, symbol H); assay type: in vivo, barnyard grass (Echinochloa crus-galli); conditions: amount of applied herbicide 320 g/ha
Outline: (§1)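 Scoring uses the grading scale of an earlier test, three weeks post-application. Treatment consists of spraying a diluted emulsion formulation across the surface of sterilized diluvial soil in which seeds are buried near 1.5 cm deep; boxes are kept in a greenhouse between 25° C. and 30° C.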

chickweed [2] = experiment: Test Example 5: herbicidal effect by foliage application, plastic box (Table 20, symbol P); assay type: in vivo, common chickweed (Stellaria media); conditions: 320 g/ha, foliage application after 14-day growth, evaluated three weeks after application
Outline: (§2)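 Post-emergence foliar test in sterilized diluvial soil. Compound applied as water-diluted emulsion at a predetermined rate to 14-day-old plants; evaluation at three weeks.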

rice flat sedge = experiment: Test Example 3: herbicidal effect by foliage application, Wagner pot (Table 18, symbol E); assay type: in vivo, rice flat sedge (Cyperus iria); conditions: 320 g/ha
Outline: (§3)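 Plants were sown in alluvial soil held under 0.1–0.5 cm standing water and grown 14 days in a greenhouse at 25–30 °C. An emulsifiable formulation, water-diluted to the set dose, was then sprayed onto the foliage, and effects were scored three weeks later using previously defined criteria.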

persian speedwell [3] = experiment: Test Example 4: herbicidal effect by soil treatment (Table 19, symbol R); assay type: in vivo, Persian speedwell (Veronica persica); conditions: amount of applied herbicide 320 g/ha
Outline: as §1

southern crabgrass [4] = experiment: Test Example 4: herbicidal effect by soil treatment (Table 19, symbol F); assay type: in vivo, southern crabgrass (Digitaria ciliaris); conditions: amount of applied herbicide 320 g/ha
Outline: as §1

persian speedwell [5] = experiment: Test Example 5: herbicidal effect by foliage application, plastic box (Table 20, symbol R); assay type: in vivo, Persian speedwell (Veronica persica); conditions: 320 g/ha, foliage application after 14-day growth, evaluated three weeks after application
Outline: as §2

green foxtail [6] = experiment: Test Example 5: herbicidal effect by foliage application, plastic box (Table 20, symbol G); assay type: in vivo, green foxtail (Setaria viridis); conditions: 320 g/ha, foliage application after 14-day growth, evaluated three weeks after application
Outline: as §2

velvetleaf [7] = experiment: Test Example 5: herbicidal effect by foliage application, plastic box (Table 20, symbol M); assay type: in vivo, velvetleaf (Abutilon theophrasti); conditions: 320 g/ha, foliage application after 14-day growth, evaluated three weeks after application
Outline: as §2

barnyard grass [8] = experiment: Test Example 3: herbicidal effect by foliage application, Wagner pot (Table 18, symbol H); assay type: in vivo, barnyard grass (Echinochloa crus-galli); conditions: 320 g/ha
Outline: as §3

barnyard grass [9] = experiment: Test Example 5: herbicidal effect by foliage application, plastic box (Table 20, symbol H); assay type: in vivo, barnyard grass (Echinochloa crus-galli); conditions: 320 g/ha, foliage application after 14-day growth, evaluated three weeks after application
Outline: as §2

wild oat [10] = experiment: Test Example 5: herbicidal effect by foliage application, plastic box (Table 20, symbol I); assay type: in vivo, wild oat (Avena fatua); conditions: 320 g/ha, foliage application after 14-day growth, evaluated three weeks after application
Outline: as §2

windgrass [11] = experiment: Test Example 4: herbicidal effect by soil treatment (Table 19, symbol L); assay type: in vivo, windgrass (Apera spica-venti); conditions: amount of applied herbicide 320 g/ha
Outline: as §1

Italian ryegrass [12] = experiment: Test Example 5: herbicidal effect by foliage application, plastic box (Table 20, symbol K); assay type: in vivo, Italian ryegrass (Lolium multiflorum); conditions: 320 g/ha, foliage application after 14-day growth, evaluated three weeks after application
Outline: as §2

velvetleaf [13] = experiment: Test Example 4: herbicidal effect by soil treatment (Table 19, symbol M); assay type: in vivo, velvetleaf (Abutilon theophrasti); conditions: amount of applied herbicide 320 g/ha
Outline: as §1

redroot pigweed [14] = experiment: Test Example 5: herbicidal effect by foliage application, plastic box (Table 20, symbol N); assay type: in vivo, redroot pigweed (Amaranthus retroflexus); conditions: 320 g/ha, foliage application after 14-day growth, evaluated three weeks after application
Outline: as §2

Chinese sprangletop = experiment: Test Example 3: herbicidal effect by foliage application, Wagner pot (Table 18, symbol D); assay type: in vivo, chinese sprangletop (Leptochloa chinensis); conditions: 320 g/ha
Outline: as §3

wild oat [15] = experiment: Test Example 4: herbicidal effect by soil treatment (Table 19, symbol I); assay type: in vivo, wild oat (Avena fatua); conditions: amount of applied herbicide 320 g/ha
Outline: as §1

redroot pigweed [16] = experiment: Test Example 4: herbicidal effect by soil treatment (Table 19, symbol N); assay type: in vivo, redroot pigweed (Amaranthus retroflexus); conditions: amount of applied herbicide 320 g/ha
Outline: as §1

chickweed [17] = experiment: Test Example 4: herbicidal effect by soil treatment (Table 19, symbol P); assay type: in vivo, common chickweed (Stellaria media); conditions: amount of applied herbicide 320 g/ha
Outline: as §1

Italian ryegrass [18] = experiment: Test Example 4: herbicidal effect by soil treatment (Table 19, symbol K); assay type: in vivo, Italian ryegrass (Lolium multiflorum); conditions: amount of applied herbicide 320 g/ha
Outline: as §1

blackgrass [19] = experiment: Test Example 5: herbicidal effect by foliage application, plastic box (Table 20, symbol J); assay type: in vivo, blackgrass (Alopecurus myosuroides); conditions: 320 g/ha, foliage application after 14-day growth, evaluated three weeks after application
Outline: as §2

green foxtail [20] = experiment: Test Example 4: herbicidal effect by soil treatment (Table 19, symbol G); assay type: in vivo, green foxtail (Setaria viridis); conditions: amount of applied herbicide 320 g/ha
Outline: as §1

lambsquarters [21] = experiment: Test Example 4: herbicidal effect by soil treatment (Table 19, symbol O); assay type: in vivo, lambsquarters (Chenopodium album); conditions: amount of applied herbicide 320 g/ha
Outline: as §1

blackgrass [22] = experiment: Test Example 4: herbicidal effect by soil treatment (Table 19, symbol J); assay type: in vivo, blackgrass (Alopecurus myosuroides); conditions: amount of applied herbicide 320 g/ha
Outline: as §1

southern crabgrass [23] = experiment: Test Example 5: herbicidal effect by foliage application, plastic box (Table 20, symbol F); assay type: in vivo, southern crabgrass (Digitaria ciliaris); conditions: 320 g/ha, foliage application after 14-day growth, evaluated three weeks after application
Outline: as §2

lambsquarters [24] = experiment: Test Example 5: herbicidal effect by foliage application, plastic box (Table 20, symbol O); assay type: in vivo, lambsquarters (Chenopodium album); conditions: 320 g/ha, foliage application after 14-day growth, evaluated three weeks after application
Outline: as §2

windgrass [25] = experiment: Test Example 5: herbicidal effect by foliage application, plastic box (Table 20, symbol L); assay type: in vivo, windgrass (Apera spica-venti); conditions: 320 g/ha, foliage application after 14-day growth, evaluated three weeks after application
Outline: as §2

Row | Compound | Herbicidal effect by soil treatment, H: barnyard grass (barnyard grass [1]) | herbicidal effect on P: chickweed (evaluation grade 0-5) (chickweed [2]) | herbicidal effect on rice flat sedge (E) (rice flat sedge) | Herbicidal effect by soil treatment, R: persian speedwell (persian speedwell [3]) | Herbicidal effect by soil treatment, F: southern crabgrass (southern crabgrass [4]) | herbicidal effect on R: persian speedwell (evaluation grade 0-5) (persian speedwell [5]) | herbicidal effect on G: green foxtail (evaluation grade 0-5) (green foxtail [6]) | herbicidal effect on M: velvetleaf (evaluation grade 0-5) (velvetleaf [7]) | herbicidal effect on barnyard grass (H) (barnyard grass [8]) | herbicidal effect on H: barnyard grass (evaluation grade 0-5) (barnyard grass [9]) | herbicidal effect on I: wild oat (evaluation grade 0-5) (wild oat [10]) | Herbicidal effect by soil treatment, L: windgrass (windgrass [11]) | herbicidal effect on K: Italian ryegrass (evaluation grade 0-5) (Italian ryegrass [12]) | Herbicidal effect by soil treatment, M: velvetleaf (velvetleaf [13]) | herbicidal effect on N: redroot pigweed (evaluation grade 0-5) (redroot pigweed [14]) | herbicidal effect on Chinese sprangletop (D) (Chinese sprangletop) | Herbicidal effect by soil treatment, I: wild oat (wild oat [15]) | Herbicidal effect by soil treatment, N: redroot pigweed (redroot pigweed [16]) | Herbicidal effect by soil treatment, P: chickweed (chickweed [17]) | Herbicidal effect by soil treatment, K: Italian ryegrass (Italian ryegrass [18]) | other results
1 | CCCC(=O)Oc1c(C)nn(C)c(=O)c1-c1c(-c2ccc(F)cc2OC)sc2c(F)cccc12 [4-012] | 0 (Herbicidal rate of 5% or less (almost no effect)) | 5 (Herbicidal rate of 90% or more (almost completely withered)) | 5 (Herbicidal rate of 90% or more (almost completely withered)) | 0 (Herbicidal rate of 5% or less (almost no effect)) | 0 (Herbicidal rate of 5% or less (almost no effect)) | 4 (Herbicidal rate of 70% or more and less than 90%) | 5 (Herbicidal rate of 90% or more (almost completely withered)) | 3 (Herbicidal rate of 40% or more and less than 70%) | 5 (Herbicidal rate of 90% or more (almost completely withered)) | 3 (Herbicidal rate of 40% or more and less than 70%) | 0 (Herbicidal rate of 5% or less (almost no effect)) | 0 (Herbicidal rate of 5% or less (almost no effect)) | 3 (Herbicidal rate of 40% or more and less than 70%) | 1 (Herbicidal rate of 5% or more and less than 20%) | 4 (Herbicidal rate of 70% or more and less than 90%) | 3 (Herbicidal rate of 40% or more and less than 70%) | 0 (Herbicidal rate of 5% or less (almost no effect)) | 3 (Herbicidal rate of 40% or more and less than 70%) | 0 (Herbicidal rate of 5% or less (almost no effect)) | 0 (Herbicidal rate of 5% or less (almost no effect)) | herbicidal effect on J: blackgrass (evaluation grade 0-5) (blackgrass [19]): 0 (Herbicidal rate of 5% or less (almost no effect)); Herbicidal effect by soil treatment, G: green foxtail (green foxtail [20]): 0 (Herbicidal rate of 5% or less (almost no effect)); Herbicidal effect by soil treatment, O: lambsquarters (lambsquarters [21]): 1 (Herbicidal rate of 5% or more and less than 20%); Herbicidal effect by soil treatment, J: blackgrass (blackgrass [22]): 0 (Herbicidal rate of 5% or less (almost no effect)); herbicidal effect on F: southern crabgrass (evaluation grade 0-5) (southern crabgrass [23]): 2 (Herbicidal rate of 20% or more and less than 40%); herbicidal effect on O: lambsquarters (evaluation grade 0-5) (lambsquarters [24]): 2 (Herbicidal rate of 20% or more and less than 40%); herbicidal effect on L: windgrass (evaluation grade 0-5) (windgrass [25]): 1 (Herbicidal rate of 5% or more and less than 20%)
2 | COc1ccccc1-c1sc2c(Cl)cccc2c1-c1c(O)c(C)nn(C)c1=O [4-021] | 0 (Herbicidal rate of 5% or less (almost no effect)) | 5 (Herbicidal rate of 90% or more (almost completely withered)) | 5 (Herbicidal rate of 90% or more (almost completely withered)) | 3 (Herbicidal rate of 40% or more and less than 70%) | 0 (Herbicidal rate of 5% or less (almost no effect)) | 4 (Herbicidal rate of 70% or more and less than 90%) | 4 (Herbicidal rate of 70% or more and less than 90%) | 2 (Herbicidal rate of 20% or more and less than 40%) | 4 (Herbicidal rate of 70% or more and less than 90%) | 3 (Herbicidal rate of 40% or more and less than 70%) | 0 (Herbicidal rate of 5% or less (almost no effect)) | 0 (Herbicidal rate of 5% or less (almost no effect)) | 5 (Herbicidal rate of 90% or more (almost completely withered)) | 0 (Herbicidal rate of 5% or less (almost no effect)) | 1 (Herbicidal rate of 5% or more and less than 20%) | 4 (Herbicidal rate of 70% or more and less than 90%) | 0 (Herbicidal rate of 5% or less (almost no effect)) | 2 (Herbicidal rate of 20% or more and less than 40%) | 4 (Herbicidal rate of 70% or more and less than 90%) | 0 (Herbicidal rate of 5% or less (almost no effect)) | herbicidal effect on J: blackgrass (evaluation grade 0-5) (blackgrass [19]): 0 (Herbicidal rate of 5% or less (almost no effect)); Herbicidal effect by soil treatment, G: green foxtail (green foxtail [20]): 0 (Herbicidal rate of 5% or less (almost no effect)); Herbicidal effect by soil treatment, O: lambsquarters (lambsquarters [21]): 1 (Herbicidal rate of 5% or more and less than 20%); Herbicidal effect by soil treatment, J: blackgrass (blackgrass [22]): 0 (Herbicidal rate of 5% or less (almost no effect)); herbicidal effect on F: southern crabgrass (evaluation grade 0-5) (southern crabgrass [23]): 1 (Herbicidal rate of 5% or more and less than 20%); herbicidal effect on O: lambsquarters (evaluation grade 0-5) (lambsquarters [24]): 2 (Herbicidal rate of 20% or more and less than 40%); herbicidal effect on L: windgrass (evaluation grade 0-5) (windgrass [25]): 5 (Herbicidal rate of 90% or more (almost completely withered))
